Data from patent US9427433B2, “Methods and compositions for enhancing fertility and/or inhibiting pregnancy failure and restoring glucose tolerance” (Queen's University at Kingston, priority 2011, dated 2016).

Columns and labels:
[1] = system: pregnant diabetic mice; test: Fetal weight and intrauterine growth restriction (IUGR); format: in vivo, mouse
From the text: FIGS. 14A and 14B show representative fetal weights (FIG. 14A) and percent of dams with intrauterine growth restricted (IUGR) pups (FIG. 14B) as measured on day 18.5 of pregnancy in the tacrolimus-treated diabetic mice versus vehicle-treated diabetic dams and those normoglycemic control cohorts. Whiskers in FIG. 14A represent the 10th and 90th percentiles of fetal body weight. Pups with weights below the 10th percentile of the normoglycemic control were considered intrauterine growth restricted (IUGR) as indicated by the shaded region. […] Numbers in brackets in FIG. 14A represents number of pups examined. “n” denotes number of dams. p<0.05.

[2] = system: pregnant diabetic NOD mice; test: Pulse Wave Doppler of uterine arterial blood flow (resistance index); format: in vivo, mouse
Method: Uterine artery resistive index (RI) was calculated for each vessel according to the equation: RI=(Peak Systolic Velocity−Peak Diastolic Velocity)/Peak Systolic Velocity to assess maternal hemodynamic characteristics of tacrolimus-treated versus the normoglycemic and the vehicle-treated diabetic NOD mice.
Following the procedure described by Mu and Adamson (Am. J. Physiol. Heart Circ. Physiol. 291: H1421-H1428) for comparing patterns of blood flow hemodynamics in the uterine artery, transcutaneous ultrasound biomicroscopy and Doppler waveform recording were collected and analyzed from tacrolimus treated versus the diabetic and obese mice and their normoglycemic control cohort of mated pregnant mice using a microultrasound biomicroscope (Vivo770, Visual Sonic Inc., Toronto, Ontario, Canada) and a 30-40 MHz Real-Time Micro Visualization scanhead transducer operating at two frames per second (RMV704 or 708, VisualSonics Inc). […] Maternal heart and respiration rates were recorded via a physiological controller unit connected to the mechanical platform. […] Systolic and diastolic flow parameters were assessed in the selected point along the course of the uterine artery at 3-5 min intervals and the resistance index (RI=[PSV−EDV]/PSV) was calculated when EDV>0 to measure the pulsatility of arterial blood velocity waveforms.

[3] = system: NZO mice fed a high fat diet; test: Fasting serum glucose, fasting serum insulin and glucose tolerance, comparison of macrolides; format: in vivo, mouse; conditions: vs vehicle
Method: (§1) Female mice were administered tacrolimus (0.1 mg/kg or 0.05 mg/kg, n=6/group), vehicle (n=10), pimecrolimus (0.1 mg/kg, n=6) or sirolimus (0.1 mg/kg, n=6) subcutaneously every other day for 3 weeks.
For the comparative evaluation of other macrolide drugs to tacrolimus, mice starting at 7 weeks of age were maintained on the high fat diet for a total of 13 weeks of study period. Mice were entered into the experiments when determined to be glucose intolerant as described above. Methods of drug administration and other experimental methods were as described above.
Glucose Tolerance Test (GTT): was performed according to standard protocol (Ayala et al 2010). Briefly, basal glucose levels were measured for conscious mice individually caged in 1000 cc plastic mouse caging using a one-touch ultra glucose strips and meter (Acqui-check Aviva, Roche, Montreal, Canada) and approximately 30 microliters of blood obtained via tail venipuncture prior to fasting for six hours in cages equipped with hardwood bedding. Fasting blood glucose was recorded at the end of the six hours fasting period. Mice were then tested for oral glucose tolerance (OGTT) or for insulin sensitivity (Si). For OGTT alert mice were then given 20% D-glucose (2 g/kg body weight) sterile syrup administered orally. For Si experiments mice were given 20% D-glucose (2 g/kg body weight) sterile syrup by intraperitoneal administration through a 1 ml D29 gage “½” insulin syringe (Fisher Scientific, Montreal, Canada). Then after, blood glucose was recorded at 15, 30, 45, 60, 90 and 120 minutes respectively. For Si experiments blood glucose was determined only at 15 minutes. Glucose tolerance graphs were generated by blotting mean±standard error of the mean (SEM) of the recorded glucose data per mouse per minute collection time. One way analysis of variance (ANOVA) followed by student t-test was performed to determine alpha values for statistical differences among mean blood glucose values across experimental mice groups.
Fasting immuno-reactive mouse insulin levels were quantitatively determined in citrated platelet-free plasma samples obtained from 6 hours-fasting mice using an Ultrasensitive mouse Insulin Eliza kit (#90080, Crystal chem., IL, USA) according to the manufacturer instructions. Briefly, platelet-free plasma were isolated from freshly obtained citrated whole blood samples of fasting mice and the provided insulin standards were incubated overnight on a shaking platform at 4 C^0 in a 96 wells plate coated with Guinea pig anti-insulin. Afterwards, unbound sample materials were thoroughly washed with the supplied wash buffers and the bound guinea pig anti-insulin/mouse insulin complex immobilized to the microplate wells were incubated with Horseradish peroxidase (HRP)-conjugated anti-insulin antibody for 40 minutes at room temperature with continuous agitation. Excess unbound HRP-conjugated anti-insulin antibodies were then washed excessively with wash buffers and the HRP-mediated color reaction was developed with the addition of 3,3′,5,5′ tetramethylbenzidine (TMB) substrate solution. The amount of insulin (ng/ml) present in the test samples were then measured via interpolation using the standard curve generated by plotting absorbance (at A^0450-A^0635) versus the corresponding concentration of a wide range (0.1-12.8 ng/ml) of mouse insulin standards according to the provider's instructions. Graphic representation of differences in mean±sem of plasma insulin among different groups of mice were blotted using Prism5 (La Jolla, Calif., USA) software and statistically significant differences (at 95% confidence) were calculated for the different test groups of mice using one way ANOVA followed by Bonferroni modified student t-test comparing differences between individual experimental groups.

[4] = system: type 2 diabetes NZO mouse model; test: HOMA-IR, HOMA-B and insulin sensitivity index (Si); format: in vivo
Method: as §1
HOMA IR=fasting glucose (mmol/L)×fasting insulin ([…])/22.5 according to the method of Bonora E et al., 2000. Pancreatic β-Cell function (HOMA-B) was calculated according to the method of Tresaco B et al., 2005, HOMA-B=[20×[…]). Insulin sensitivity (Si) was determined according to the method of Matthews D et al., 1985. Si=[basal glucose]−[glucose 15 min]/15).

[5] = 0.1 mg/kg s.c. every other day for 3 weeks

C=CC[C@@H]1/C=C(\C)C[C@H](C)C[C@H](OC)[C@H]2O[C@@](O)(C(=O)C(=O)N3CCCC[C@H]3C(=O)O[C@H](/C(C)=C/[C@@H]3CC[C@@H](O)[C@H](OC)C3)[C@H](C)[C@@H](O)CC1=O)[C@H](C)C[C@@H]2OC [tacrolimus]
treated pregnant diabetic mice in which IUGR development was inhibited ([1]; 0.1 mg/kg s.c. every other day, weeks 9-11 of age): 88% | fetal body weight ([1]; day 18.5 of pregnancy, 0.1 mg/kg s.c. every other day, weeks 9-11 of age, p<0.05): significantly improved fetal body weight | pups born to diabetic dams rescued from inflammatory-mediated growth restriction ([1]; short term administration): 88% | treated pregnant diabetic mice with sustained decidual arteriolar flow velocity and normalized vascular resistance to uterine blood flow ([2]; Doppler waveform, p<0.05 vs vehicle-treated diabetic mice): 88% | uterine arterial hemodynamics ([2]; throughout pregnancy): improved uterine arterial hemodynamics | fasting basal serum glucose [3, 5]: normalized fasting basal serum glucose concentrations | fasting basal serum insulin [3, 5]: significantly reduced fasting basal serum insulin concentrations | insulin secretion in response to a hyperglycemic challenge ([3]; tacrolimus 0.1 or 0.05 mg/kg, pimecrolimus 0.1 mg/kg, sirolimus 0.1 mg/kg s.c. every other day for 3 weeks): significantly improved insulin secretion | insulin resistance (HOMA-IR) ([4]; p<0.001 vs vehicle): significantly reduced insulin resistance | insulin sensitivity (Si) ([4]; p<0.01 vs vehicle): enhanced insulin sensitivity | pancreatic β-cell function (HOMA-B) ([4]; p<0.05 vs vehicle): enhanced pancreatic β-cell function
